Laboratory results reported in patent US12410160B2 (Gilead Sciences, Inc., priority 2021, dated 2025).

Columns and labels:
human KHK-C = human KHK-C (Homo sapiens (Human), UniProt P50053); assay: KHK Biochemical Assay (IC50), ADP-Glo, KHK-C; details: ADP-Glo; average of at least two separate assays
In short: (§1)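 Luminescent ADP-Glo read-out of ADP made by His-tagged KHK (BL21 (DE3) expression, Ni-NTA). Enzyme and compound sat together 30 min before ATP/fructose addition, then reacted 4 h at RT in Hepes pH 7.4 buffer with KCl, MgCl2, Triton-X. Quench 1 h, detection 1 h.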

human KHK-A = human KHK-A (Homo sapiens (Human), UniProt P50053); assay: KHK Biochemical Assay (IC50), ADP-Glo, KHK-A; details: ADP-Glo; average of at least two separate assays
In short: as §1

Sequence of human KHK-C (P50053 whole entry): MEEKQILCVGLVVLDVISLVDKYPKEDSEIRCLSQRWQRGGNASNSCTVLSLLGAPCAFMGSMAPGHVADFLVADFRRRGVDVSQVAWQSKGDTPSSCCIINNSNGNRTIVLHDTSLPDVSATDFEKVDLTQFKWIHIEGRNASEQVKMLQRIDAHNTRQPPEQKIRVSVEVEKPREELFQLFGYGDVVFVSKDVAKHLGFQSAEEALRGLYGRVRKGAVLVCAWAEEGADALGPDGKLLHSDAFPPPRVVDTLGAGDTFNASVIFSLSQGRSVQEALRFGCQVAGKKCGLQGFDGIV
Sequence of human KHK-A (P50053 other isoform, or with tags, fused parts or gaps): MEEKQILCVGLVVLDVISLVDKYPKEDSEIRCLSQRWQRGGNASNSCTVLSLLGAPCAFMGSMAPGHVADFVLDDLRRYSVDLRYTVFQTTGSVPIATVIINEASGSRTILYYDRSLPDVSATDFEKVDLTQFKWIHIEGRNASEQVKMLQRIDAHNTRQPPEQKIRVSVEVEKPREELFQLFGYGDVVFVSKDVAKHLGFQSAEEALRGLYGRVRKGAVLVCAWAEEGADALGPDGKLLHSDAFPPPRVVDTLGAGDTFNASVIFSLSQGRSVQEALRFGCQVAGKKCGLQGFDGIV

Structure (SMILES) | IC50 (human KHK-C) | IC50 (human KHK-A)
COc1cc(S(=N)(=O)c2cccc(-c3nc(N4CC[C@@H]4C)nc4c3CCC4)c2)ccc1C#N (stereo partly drawn) [Example 848, 2-methoxy-4-(3-(2-((S)-2-methylazetidin-1-yl)-6,7-dihydro-5H-cyclopenta[d]pyrimidin-4-yl)phenylsulfonimidoyl)benzonitrile] | 186 nM | 249 nM
COc1ccc(-c2nc(N3CC[C@@H]3C)nc3c2CCC3)cc1S(=N)(=O)c1ccc(C#N)cc1Cl (stereo partly drawn) [Example 849, 3-chloro-4-(2-methoxy-5-(2-((S)-2-methylazetidin-1-yl)-6,7-dihydro-5H-cyclopenta[d]pyrimidin-4-yl)phenylsulfonimidoyl)benzonitrile] | 25.4 nM | 16.3 nM
COc1cc(S(=N)(=O)c2cc(-c3nc(N4CC[C@@H]4C)nc4c3CCC4)ccc2OC)ccc1C#N (stereo partly drawn) [Example 850, 2-methoxy-4-(2-methoxy-5-(2-((S)-2-methylazetidin-1-yl)-6,7-dihydro-5H-cyclopenta[d]pyrimidin-4-yl)phenylsulfonimidoyl)benzonitrile] | 141 nM | 59.6 nM
COc1ccc(-c2nc(N3CC[C@@H]3C)nc3c2CCC3)cc1S(=N)(=O)c1ccc(C#N)cc1 (stereo partly drawn) [Example 851, 4-(2-methoxy-5-(2-((S)-2-methylazetidin-1-yl)-6,7-dihydro-5H-cyclopenta[d]pyrimidin-4-yl)phenylsulfonimidoyl)benzonitrile] | 17.8 nM | 10.1 nM
C[C@H]1CCN1c1nc2c(c(-c3ccc4[nH]cnc4c3)n1)CCC2 [Example 852, (S)-5-(2-(2-methylazetidin-1-yl)-6,7-dihydro-5H-cyclopenta[d]pyrimidin-4-yl)-1H-benzo[d]imidazole] | 18.9 nM | 21.8 nM
C[C@H]1CCN1c1nc2c(c(-c3ccc4ncn(C)c4c3)n1)CCC2 [Example 853, (S)-1-methyl-6-(2-(2-methylazetidin-1-yl)-6,7-dihydro-5H-cyclopenta[d]pyrimidin-4-yl)-1H-benzo[d]imidazole] | 35.3 nM | 73.2 nM
C[C@H]1CCN1c1nc2c(c(-c3ccc4c(c3)CCCCC4NS(C)(=O)=O)n1)CCC2 (stereo partly drawn) [Example 854, N-(2-(2-((S)-2-methylazetidin-1-yl)-6,7-dihydro-5H-cyclopenta[d]pyrimidin-4-yl)-6,7,8,9-tetrahydro-5H-benzo[7]annulen-5-yl)methanesulfonamide] | 442 nM | 543 nM
C[C@H]1CCN1c1nc2c(c(-c3ccc4c(c3)NC(=O)CNC4)n1)CCC2 [Example 855, (S)-8-(2-(2-methylazetidin-1-yl)-6,7-dihydro-5H-cyclopenta[d]pyrimidin-4-yl)-1,3,4,5-tetrahydro-2H-benzo[e][1,4]diazepin-2-one] | 80.5 nM | 84.9 nM
C[C@H]1CCN1c1nc2c(c(-c3ccc4c(c3)N(C)C(=O)CNC4)n1)CCC2 [Example 856, (S)-1-methyl-8-(2-(2-methylazetidin-1-yl)-6,7-dihydro-5H-cyclopenta[d]pyrimidin-4-yl)-1,3,4,5-tetrahydro-2H-benzo[e][1,4]diazepin-2-one] | 175 nM | 143 nM
C[C@H]1CCN1c1nc2c(c(-c3nc4ccc(C(N)=O)cc4s3)n1)CCC2 [Example 857, (S)-2-(2-(2-methylazetidin-1-yl)-6,7-dihydro-5H-cyclopenta[d]pyrimidin-4-yl)benzo[d]thiazole-6-carboxamide] | 149 nM | 141 nM
C[C@H]1CCN1c1nc2c(c(-c3ccc4c(=O)[nH]c(=O)n(C)c4c3)n1)CCC2 [Example 858, (S)-1-methyl-7-(2-(2-methylazetidin-1-yl)-6,7-dihydro-5H-cyclopenta[d]pyrimidin-4-yl)quinazoline-2,4(1H,3H)-dione] | 43.6 nM | 18 nM
C[C@H]1CCN1c1nc2c(c(-c3ccc4c(c3)CCNC4C(F)(F)F)n1)CCC2 (stereo partly drawn) [Example 859, 6-(2-((S)-2-methylazetidin-1-yl)-6,7-dihydro-5H-cyclopenta[d]pyrimidin-4-yl)-1-(trifluoromethyl)-1,2,3,4-tetrahydroisoquinoline] | 301 nM | 434 nM
C[C@H]1CCN1c1nc2c(c(-c3cccc(S(C)(=N)=O)n3)n1)CCC2 (stereo partly drawn) [Example 860, imino(methyl)(6-(2-((S)-2-methylazetidin-1-yl)-6,7-dihydro-5H-cyclopenta[d]pyrimidin-4-yl)pyridin-2-yl)-λ^6-sulfanone] | 224 nM | 191 nM
CCS(=N)(=O)c1cc(-c2nc(N3CC[C@@H]3C)nc3c2CCC3)ccc1OC (stereo partly drawn) [Example 861, ethyl(imino)(2-methoxy-5-(2-((S)-2-methylazetidin-1-yl)-6,7-dihydro-5H-cyclopenta[d]pyrimidin-4-yl)phenyl)-λ^6-sulfanone] | 15.2 nM | 4.9 nM
COc1cc(-c2nc(N3CC[C@@H]3C)nc3c2CCC3)ccc1CS(N)(=O)=O [Example 862, (S)-(2-methoxy-4-(2-(2-methylazetidin-1-yl)-6,7-dihydro-5H-cyclopenta[d]pyrimidin-4-yl)phenyl)methanesulfonamide] | 76.4 nM | 48.1 nM
C[C@H]1CCN1c1nc2c(c(-c3cccc(Sc4ccc(C#N)cc4)c3)n1)CCC2 [Example 863, (S)-4-((3-(2-(2-methylazetidin-1-yl)-6,7-dihydro-5H-cyclopenta[d]pyrimidin-4-yl)phenyl)thio)benzonitrile] | > 1000 nM | > 1000 nM
CCc1cc(-c2nc(N3CC[C@@H]3C)nc3c2CCC3)ccc1C1(N)COC1 [Example 864, (S)-3-(2-ethyl-4-(2-(2-methylazetidin-1-yl)-6,7-dihydro-5H-cyclopenta[d]pyrimidin-4-yl)phenyl)oxetan-3-amine] | 6.3 nM | 10 nM
C[C@H]1CCN1c1nc2c(c(-c3ccc4c(c3)C3(CCC3)CNC4=O)n1)CCC2 [Example 865, (S)-6′-(2-(2-methylazetidin-1-yl)-6,7-dihydro-5H-cyclopenta[d]pyrimidin-4-yl)-2′,3′-dihydro-1′H-spiro[cyclobutane-1,4′-isoquinolin]-1′-one] | 17.3 nM | 25.4 nM
C[C@H]1CCN1c1nc2c(c(-c3cc4c(s3)C(=O)NC(C)(C)N4)n1)CCC2 [Example 866, (S)-2,2-dimethyl-6-(2-(2-methylazetidin-1-yl)-6,7-dihydro-5H-cyclopenta[d]pyrimidin-4-yl)-2,3-dihydrothieno[3,2-d]pyrimidin-4(1H)-one] | 27.7 nM | 18.9 nM

Next, values leading:

IC50 (human KHK-C) | IC50 (human KHK-A) | Structure (SMILES)
> 1000 nM | > 1000 nM | C[C@H]1CCN1c1nc2c(c(-c3cc4c(N)n[nH]c4cn3)n1)CCC2 [Example 867, (S)-5-(2-(2-methylazetidin-1-yl)-6,7-dihydro-5H-cyclopenta[d]pyrimidin-4-yl)-1H-pyrazolo[3,4-c]pyridin-3-amine]
230 nM | 158 nM | C[C@H]1CCN1c1nc2c(c(-c3cc4c(N)nn(C(=O)OC(C)(C)C)c4cn3)n1)CCC2 [Example 868, tert-butyl (S)-3-amino-5-(2-(2-methylazetidin-1-yl)-6,7-dihydro-5H-cyclopenta[d]pyrimidin-4-yl)-1H-pyrazolo[3,4-c]pyridine-1-carboxylate]
21.6 nM | 5.9 nM | COCCS(=N)(=O)c1cc(-c2nc(N3CC[C@@H]3C)nc3c2CCC3)ccc1OC (stereo partly drawn) [Example 869, imino(2-methoxy-5-(2-((S)-2-methylazetidin-1-yl)-6,7-dihydro-5H-cyclopenta[d]pyrimidin-4-yl)phenyl)(2-methoxyethyl)-λ^6-sulfanone]
69.5 nM | 10.9 nM | C[C@H]1CCN1c1nc2c(c(-c3ccc4c(c3)C3(CC3)C(=O)NC4=O)n1)CCC2 [Example 870, (S)-6′-(2-(2-methylazetidin-1-yl)-6,7-dihydro-5H-cyclopenta[d]pyrimidin-4-yl)-1′H-spiro[cyclopropane-1,4′-isoquinoline]-1′,3′(2′H)-dione]
23.4 nM | 50.4 nM | C[C@H]1CCN1c1nc2c(c(-c3ccc(-c4noc(=O)[nH]4)cc3)n1)CCC2 [Example 871, (S)-3-(4-(2-(2-methylazetidin-1-yl)-6,7-dihydro-5H-cyclopenta[d]pyrimidin-4-yl)phenyl)-1,2,4-oxadiazol-5(4H)-one]
28.9 nM | 27 nM | C[C@H]1CCN1c1nc2c(c(-c3cccc(-c4noc(=O)[nH]4)c3)n1)CCC2 [Example 872, (S)-3-(3-(2-(2-methylazetidin-1-yl)-6,7-dihydro-5H-cyclopenta[d]pyrimidin-4-yl)phenyl)-1,2,4-oxadiazol-5(4H)-one]
23.6 nM | 24.1 nM | C[C@H]1CCN1c1nc2c(c(-c3cccc(S(=N)(N)=O)c3)n1)CCC2 (stereo partly drawn) [Example 873, 3-(2-((S)-2-methylazetidin-1-yl)-6,7-dihydro-5H-cyclopenta[d]pyrimidin-4-yl)benzenesulfonimidamide]
72.3 nM | 88.4 nM | C[C@H]1CCN1c1nc2c(c(-c3ccc(S(=N)(N)=O)cc3)n1)CCC2 (stereo partly drawn) [Example 874, 4-(2-((S)-2-methylazetidin-1-yl)-6,7-dihydro-5H-cyclopenta[d]pyrimidin-4-yl)benzenesulfonimidamide]
58 nM | 67 nM | C[C@H]1CCN1c1nc2c(c(-c3ccc4c(c3)C3(CC4)CNC(=O)C3)n1)CCC2 (stereo partly drawn) [Example 875, 6-(2-((S)-2-methylazetidin-1-yl)-6,7-dihydro-5H-cyclopenta[d]pyrimidin-4-yl)-2,3-dihydrospiro[indene-1,3′-pyrrolidin]-5′-one]
99.4 nM | 70.4 nM | C[C@H]1CCN1c1nc2c(c(-c3cccc(-c4nnn[nH]4)c3)n1)CCC2 [Example 876, (S)-4-(3-(1H-tetrazol-5-yl)phenyl)-2-(2-methylazetidin-1-yl)-6,7-dihydro-5H-cyclopenta[d]pyrimidine]
